# Patent US20100196465A1, “STABLE PHARMACEUTICAL COMPOSITION OF A WATER-SOLUBLE VINORELBINE SALT” (Pierre Fabre Medicament, priority 2007, published 2010)
# Assay: Stability test at 5° C. in a sealed package after 6 and 12 months (impurity content)
# Type: physicochemical
# Conditions: external 20% humidity, % of the total weight of the composition
# Protocol: The compositions as gelatin capsules are housed in a sealed package (T0) and stored at 5° C. with an external 20% humidity rate. Next, the impurity content (in % of the total weight of the composition) is dosed after 6 and 12 months (T6 and T12 respectively) and compared to that dosed beforehand at T0. The difference between the percentages at T6 and T0 and then T12 and T0 indicate the change in the impurity content.
# It is compared with that obtained for freeze-dried vinorelbine ditartrate stored under the same conditions.
# This operating procedure was applied in the following Examples 2 to 5.
smiles,measurement,value
"CCC1=C[C@@H]2CN(C1)Cc1c([nH]c3ccccc13)[C@@](C(=O)OC)(c1cc3c(cc1OC)N(C)[C@H]1[C@@](O)(C(=O)OC)[C@H](OC(C)=O)[C@]4(CC)C=CCN5CC[C@]31[C@@H]54)C2 [Vinorelbine ditartrate, vinorelbine ditartrate]",Change in impurity content T0 to T12,T0 to T12: +0.79%
